Measurements from patent US9113629B2, “4-amino-6-(4-substituted-phenyl)-picolinates and 6-amino-2-(4-substituted-phenyl)-pyrimidine-4-carboxylates and their use as herbicides” (DOW AGROSCIENCES LLC, priority 2013, dated 2015).
Like-named read-outs stand apart in the source and are kept apart here.

Assays:
[1] = test system: Key Broadleaf Weed and Crop Species; test: Post-emergent Test II herbicidal activity (Table 5); assay type: in vivo; settings: post-emergence, 336 h, post-emergent, 14 days after application; for pest or weed control at 70 g/ha: 70 g ai/ha; for pest or weed control at 140 g/ha: 140 g ai/ha
Outline: (§1)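 Spray rates: a highest rate plus ½×, ¼×, ⅛×, 1/16×, all delivered at 187 L/ha to plants at the first–second true leaf stage. Readout is a visual percent injury score at 14 d, where 100 means complete kill.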

[2] = test system: Key Grass and Sedge Weeds as well as Grass Crops; test: Post-emergent Test II herbicidal activity (Table 6); assay type: in vivo; settings: post-emergence, 336 h; for pest or weed control at 70 g/ha: application rate 70 g ai/ha; for pest or weed control at 140 g/ha: application rate 140 g ai/ha
Outline: as §1

[3] = ABUTH: velvetleaf (Abutilon theophrasti), read-out: Visual Growth Reduction (%) 14 Days After Application ABUTH
[4] = AMARE: redroot pigweed (Amaranthus retroflexus), read-out: Visual Growth Reduction (%) 14 Days After Application AMARE
[5] = BRSNN: oilseed-rape, canola (Brassica napus), read-out: Visual Growth Reduction (%) 14 Days After Application BRSNN
[6] = CHEAL: lambsquarters (Chenopodium album), read-out: Visual Growth Reduction (%) 14 Days After Application CHEAL
[7] = EPHHL: wild poinsettia (Euphorbia heterophylla), read-out: Visual Growth Reduction (%) 14 Days After Application EPHHL
[8] = HELAN: sunflower (Helianthus annuus), read-out: Visual Growth Reduction (%) 14 Days After Application HELAN
[9] = VIOTR: wild pansy (Viola tricolor), read-out: Visual Growth Reduction (%) 14 Days After Application VIOTR
[10] = Triticum aestivum, TRZSS (wheat), read-out: Visual Growth Reduction (%) 14 Days After Application, TRZSS
[11] = CYPES: yellow nutsedge (Cyperus esculentus), read-out: Visual Growth Reduction (%) 14 Days After Application, CYPES
[12] = DIGSA: crabgrass (Digitaria sanguinalis), read-out: Visual Growth Reduction (%) 14 Days After Application, DIGSA
[13] = ECHCG: barnyardgrass (Echinochloa crus-galli), read-out: Visual Growth Reduction (%) 14 Days After Application, ECHCG
[14] = ORYSA: rice (Oryza sativa), read-out: Visual Growth Reduction (%) 14 Days After Application, ORYSA
[15] = SETFA: giant foxtail (Setaria faberi), read-out: Visual Growth Reduction (%) 14 Days After Application, SETFA
[16] = SORVU: grain sorghum (Sorghum vulgare), read-out: Visual Growth Reduction (%) 14 Days After Application, SORVU
[17] = ZEAMX: maize, corn (Zea mays), read-out: Visual Growth Reduction (%) 14 Days After Application, ZEAMX

## COC(=O)c1nc(-c2cc(F)c(I)cc2F)nc(N)c1OC [Compound 101]
[1]; [3]
  pest or weed control at 70 g/ha: 85 to 94%
  pest or weed control at 140 g/ha: 85 to 94%
[1]; [4]
  pest or weed control at 70 g/ha: 85 to 94%
  pest or weed control at 140 g/ha: 85 to 94%
[1]; [5]
  pest or weed control at 70 g/ha: 95 to 100%
  pest or weed control at 140 g/ha: 95 to 100%
[1]; [6]
  pest or weed control at 70 g/ha: 85 to 94%
  pest or weed control at 140 g/ha: 85 to 94%
[1]; [7]
  pest or weed control at 70 g/ha: 95 to 100%
  pest or weed control at 140 g/ha: 95 to 100%
[1]; [8]
  pest or weed control at 70 g/ha: 85 to 94%
  pest or weed control at 140 g/ha: 85 to 94%
[1]; [9]
  pest or weed control at 70 g/ha: 0 to 29%
  pest or weed control at 140 g/ha: 0 to 29%
[2]; [10]
  pest or weed control at 70 g/ha: 30 to 44%
  pest or weed control at 140 g/ha: 30 to 44%
[2]; [11]
  pest or weed control at 70 g/ha: 45 to 59%
  pest or weed control at 140 g/ha: 45 to 59%
[2]; [12]
  pest or weed control at 70 g/ha: 45 to 59%
  pest or weed control at 140 g/ha: 60 to 74%
[2]; [13]
  pest or weed control at 70 g/ha: 0 to 29%
  pest or weed control at 140 g/ha: 85 to 94%
[2]; [14]
  pest or weed control at 70 g/ha: 0 to 29%
  pest or weed control at 140 g/ha: 0 to 29%
[2]; [15]
  pest or weed control at 70 g/ha: 0 to 29%
  pest or weed control at 140 g/ha: 60 to 74%
[2]; [16]
  pest or weed control at 70 g/ha: 30 to 44%
  pest or weed control at 140 g/ha: 45 to 59%
[2]; [17]
  pest or weed control at 70 g/ha: 60 to 74%
  pest or weed control at 140 g/ha: 60 to 74%
other
  melting point: 193 to 194 °C

## COC(=O)c1nc(-c2ccc(Br)cc2F)cc(N)c1Cl [Compound 93]
[1]; [3]
  pest or weed control at 70 g/ha: 95 to 100%
  pest or weed control at 140 g/ha: 95 to 100%
[1]; [4]
  pest or weed control at 70 g/ha: 95 to 100%
  pest or weed control at 140 g/ha: 95 to 100%
[1]; [5]
  pest or weed control at 70 g/ha: 0 to 29%
  pest or weed control at 140 g/ha: 60 to 74%
[1]; [6]
  pest or weed control at 70 g/ha: 85 to 94%
  pest or weed control at 140 g/ha: 95 to 100%
[1]; [7]
  pest or weed control at 70 g/ha: 95 to 100%
  pest or weed control at 140 g/ha: 95 to 100%
[1]; [8]
  pest or weed control at 70 g/ha: 85 to 94%
  pest or weed control at 140 g/ha: 85 to 94%
[1]; [9]
  pest or weed control at 70 g/ha: 30 to 44%
[2]; [10]
  pest or weed control at 70 g/ha: 45 to 59%
  pest or weed control at 140 g/ha: 45 to 59%
[2]; [11]
  pest or weed control at 70 g/ha: 95 to 100%
  pest or weed control at 140 g/ha: 95 to 100%
[2]; [12]
  pest or weed control at 70 g/ha: 75 to 84%
  pest or weed control at 140 g/ha: 95 to 100%
[2]; [13]
  pest or weed control at 70 g/ha: 85 to 94%
  pest or weed control at 140 g/ha: 85 to 94%
[2]; [14]
  pest or weed control at 70 g/ha: 0 to 29%
  pest or weed control at 140 g/ha: 0 to 29%
[2]; [15]
  pest or weed control at 70 g/ha: 75 to 84%
  pest or weed control at 140 g/ha: 75 to 84%
[2]; [16]
  pest or weed control at 70 g/ha: 85 to 94%
  pest or weed control at 140 g/ha: 95 to 100%
[2]; [17]
  pest or weed control at 70 g/ha: 60 to 74%
  pest or weed control at 140 g/ha: 75 to 84%
other
  melting point: 98.9 to 101.6 °C

## COC(=O)c1nc(-c2ccc(C(N)=O)cc2)c(F)c(N)c1Cl [Compound 192]
[1]; [3]
  pest or weed control at 70 g/ha: 0 to 29%
  pest or weed control at 140 g/ha: 0 to 29%
[1]; [4]
  pest or weed control at 70 g/ha: 0 to 29%
  pest or weed control at 140 g/ha: 0 to 29%
[1]; [5]
  pest or weed control at 70 g/ha: 0 to 29%
  pest or weed control at 140 g/ha: 0 to 29%
[1]; [6]
  pest or weed control at 70 g/ha: 0 to 29%
  pest or weed control at 140 g/ha: 0 to 29%
[1]; [7]
  pest or weed control at 70 g/ha: 0 to 29%
  pest or weed control at 140 g/ha: 0 to 29%
[1]; [8]
  pest or weed control at 70 g/ha: 0 to 29%
  pest or weed control at 140 g/ha: 0 to 29%
[1]; [9]
  pest or weed control at 70 g/ha: 0 to 29%
  pest or weed control at 140 g/ha: 0 to 29%
[2]; [10]
  pest or weed control at 70 g/ha: 0 to 29%
  pest or weed control at 140 g/ha: 0 to 29%
[2]; [11]
  pest or weed control at 70 g/ha: 0 to 29%
  pest or weed control at 140 g/ha: 0 to 29%
[2]; [12]
  pest or weed control at 70 g/ha: 0 to 29%
  pest or weed control at 140 g/ha: 0 to 29%
[2]; [13]
  pest or weed control at 70 g/ha: 0 to 29%
  pest or weed control at 140 g/ha: 0 to 29%
[2]; [14]
  pest or weed control at 70 g/ha: 0 to 29%
  pest or weed control at 140 g/ha: 0 to 29%
[2]; [15]
  pest or weed control at 70 g/ha: 0 to 29%
  pest or weed control at 140 g/ha: 0 to 29%
[2]; [16]
  pest or weed control at 70 g/ha: 0 to 29%
  pest or weed control at 140 g/ha: 0 to 29%
[2]; [17]
  pest or weed control at 70 g/ha: 0 to 29%
  pest or weed control at 140 g/ha: 0 to 29%
other
  melting point: 192 to 195 °C

## Cc1c(-c2ccc(C(F)(F)F)c(F)c2)nc(C(=O)O)c(Cl)c1N [Compound 161, 4-amino-3-chloro-6-(3-fluoro-4-(trifluoromethyl)phenyl)-5-methylpicolinic acid]
[1]; [3]
  pest or weed control at 70 g/ha: 75 to 84%
  pest or weed control at 140 g/ha: 85 to 94%
[1]; [4]
  pest or weed control at 70 g/ha: 45 to 59%
  pest or weed control at 140 g/ha: 95 to 100%
[1]; [5]
  pest or weed control at 70 g/ha: 95 to 100%
  pest or weed control at 140 g/ha: 95 to 100%
[1]; [6]
  pest or weed control at 70 g/ha: 95 to 100%
  pest or weed control at 140 g/ha: 95 to 100%
[1]; [7]
  pest or weed control at 70 g/ha: 0 to 29%
  pest or weed control at 140 g/ha: 0 to 29%
[1]; [8]
  pest or weed control at 70 g/ha: 95 to 100%
  pest or weed control at 140 g/ha: 95 to 100%
[1]; [9]
  pest or weed control at 70 g/ha: 0 to 29%
  pest or weed control at 140 g/ha: 0 to 29%
[2]; [10]
  pest or weed control at 70 g/ha: 60 to 74%
  pest or weed control at 140 g/ha: 60 to 74%
[2]; [11]
  pest or weed control at 70 g/ha: 95 to 100%
[2]; [12]
  pest or weed control at 70 g/ha: 30 to 44%
  pest or weed control at 140 g/ha: 45 to 59%
[2]; [13]
  pest or weed control at 70 g/ha: 45 to 59%
  pest or weed control at 140 g/ha: 60 to 74%
[2]; [14]
  pest or weed control at 70 g/ha: 0 to 29%
  pest or weed control at 140 g/ha: 0 to 29%
[2]; [15]
  pest or weed control at 70 g/ha: 85 to 94%
  pest or weed control at 140 g/ha: 85 to 94%
[2]; [16]
  pest or weed control at 70 g/ha: 0 to 29%
  pest or weed control at 140 g/ha: 0 to 29%
[2]; [17]
  pest or weed control at 70 g/ha: 60 to 74%
  pest or weed control at 140 g/ha: 60 to 74%
other
  melting point: 170 to 171.5 °C
